Results reported in patent publication US20050239656A1, “Pyridine compounds or salts thereof and herbicides containing the same” (priority 2002, published 2005).

Legend:
[1] = tested on: velvetleaf; assay: Test Example 1: foliage treatment, upland pot test; format: in vivo, Abutilon theophrasti MEDIC.; conditions: active ingredient 500 g/ha, observed 18th to 23rd day, 0 = non-treated, 100 = complete kill
[2] = tested on: rice; assay: Test Example 1: foliage treatment, upland pot test; format: in vivo, Oryza sativa L.; conditions: crop, active ingredient 500 g/ha, observed 18th to 23rd day, 0 = non-treated, 100 = complete kill
In short: (§1)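 Each plant species was sprayed once on its foliage, with wheat at 1.3–2.4, soybean at 0.1–0.4, barnyardgrass at 1.3–2.8 and rice at 1.2–2.6 leaves. Visual ratings of growth inhibition, 0 to 100%, followed 18–23 days later.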

[3] = tested on: barnyardgrass; assay: Test Example 2: soil surface treatment, upland pot test; format: in vivo, Echinochloa crus-galli L.; conditions: active ingredient 500 g/ha, observed 20th to 28th day
In short: (§2)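 Sowing, then next-day soil-surface spray of formulated test compound (fixed a.i. amount, 1,500 L/ha spray volume); visual evaluation of growth inhibition, 0–100%, three to four weeks (days 20–28) after application.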

[4] = tested on: barnyardgrass; assay: Test Example 3: paddy pot test, application under submerged conditions; format: in vivo, Echinochloa crus-galli L.; conditions: active ingredient 250 g/ha; submerged application at 0.5 leaf stage; visually observed 14 days after application; 0 = non-treated, 100 = complete kill
In short: (§3)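 After sowing seeds and planting wapato tubers in flooded paddy soil, an aqueous dilution of the formulated compound was added to the 3–4 cm flood water at early leaf stage. Percent growth control relative to the untreated plot was assessed visually on day 14.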

[5] = tested on: prickly sida; assay: Test Example 1: foliage treatment, upland pot test; format: in vivo, Sida spinosa L.; conditions: active ingredient 500 g/ha, observed 18th to 23rd day, 0 = non-treated, 100 = complete kill
[6] = tested on: soybean; assay: Test Example 1: foliage treatment, upland pot test; format: in vivo, Glycine max Merr.; conditions: crop, active ingredient 500 g/ha, observed 18th to 23rd day, 0 = non-treated, 100 = complete kill
In short: as §1

[7] = tested on: velvetleaf; assay: Test Example 2: soil surface treatment, upland pot test; format: in vivo, Abutilon theophrasti MEDIC.; conditions: active ingredient 500 g/ha, observed 20th to 28th day
In short: as §2

[8] = tested on: green foxtail; assay: as above; format: in vivo, Setaria viridis L.; conditions: active ingredient 500 g/ha, observed 20th to 28th day
In short: as §2

[9] = tested on: corn; assay: as above; format: in vivo, Zea mays L.; conditions: active ingredient 500 g/ha, observed 20th to 28th day
In short: as §2

[10] = tested on: japanese ribbon wapato; assay: Test Example 3: paddy pot test, application under submerged conditions; format: in vivo, Sagittaria pygniaea; conditions: active ingredient 250 g/ha; submerged application at primary leaf stage; visually observed 14 days after application; 0 = non-treated, 100 = complete kill
In short: as §3

[11] = tested on: green foxtail; assay: Test Example 1: foliage treatment, upland pot test; format: in vivo, Setaria viridis L.; conditions: active ingredient 500 g/ha, observed 18th to 23rd day, 0 = non-treated, 100 = complete kill
[12] = tested on: soybean; assay: Test Example 2: soil surface treatment, upland pot test; format: in vivo, Glycine max Merr.; conditions: active ingredient 500 g/ha, observed 20th to 28th day
In short: as §2

[13] = tested on: redroot pigweed; assay: as above; format: in vivo, Amaranthus retroflexus L.; conditions: active ingredient 500 g/ha, observed 20th to 28th day
In short: as §2

[14] = tested on: japanese bulrush; assay: Test Example 3: paddy pot test, application under submerged conditions; format: in vivo, Scirpus juncoides; conditions: active ingredient 250 g/ha; submerged application at 0.5 leaf stage; visually observed 14 days after application; 0 = non-treated, 100 = complete kill
In short: as §3

[15] = tested on: crabgrass; assay: Test Example 2: soil surface treatment, upland pot test; format: in vivo, Digitaria sanguinalis L.; conditions: active ingredient 500 g/ha, observed 20th to 28th day
In short: as §2

[16] = tested on: prickly sida; assay: as above; format: in vivo, Sida spinosa L.; conditions: active ingredient 500 g/ha, observed 20th to 28th day
In short: as §2

[17] = tested on: corn; assay: Test Example 1: foliage treatment, upland pot test; format: in vivo, Zea mays L.; conditions: crop, active ingredient 500 g/ha, observed 18th to 23rd day, 0 = non-treated, 100 = complete kill
In short: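 In this upland pot foliage test, corn plants at 2.1 to 3.2 leaf stages were sprayed by a small size sprayer. The spray was a conventionally formulated wettable powder or emulsifiable concentrate weighed to a set active ingredient amount, diluted in water at 500 L/ha, plus 0.1% (v/v) agricultural spreader. Visual assessment on days 18 to 23 gave growth controlling degree (%), where 0 equals untreated and 100 means complete kill.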

[18] = tested on: rice; assay: Test Example 2: soil surface treatment, upland pot test; format: in vivo, Oryza sativa L.; conditions: active ingredient 500 g/ha, observed 20th to 28th day
In short: as §2

[19] = tested on: redroot pigweed; assay: Test Example 1: foliage treatment, upland pot test; format: in vivo, Amaranthus retroflexus L.; conditions: active ingredient 500 g/ha, observed 18th to 23rd day, 0 = non-treated, 100 = complete kill
[20] = tested on: crabgrass; assay: Test Example 1: foliage treatment, upland pot test; format: in vivo, Digitaria sanguinalis L.; conditions: active ingredient 500 g/ha, observed 18th to 23rd day, 0 = non-treated, 100 = complete kill
[21] = tested on: rice (var. Nihonbare); assay: Test Example 3: paddy pot test, transplanted rice; format: in vivo, Oryza sativa L.; conditions: active ingredient 250 g/ha, applied 4th day after transplantation, visually observed 21st day after application, 0 = non-treated, 100 = complete kill
In short: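 Rice (2-leaf stage) was transplanted 3 cm deep into puddled, leveled paddy soil under 3–4 cm flooding. On day 4 after transplanting, diluted wettable powder or emulsifiable concentrate was pipetted onto the water at a predetermined active-ingredient dose. Growth control (0 = untreated, 100 = complete kill) was scored visually 21 days later.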

[22] = tested on: barnyardgrass; assay: Test Example 1: foliage treatment, upland pot test; format: in vivo, Echinochloa crus-galli L.; conditions: active ingredient 500 g/ha, observed 18th to 23rd day, 0 = non-treated, 100 = complete kill
In short: as §1

Compound	Growth controlling degree (%) Velvetleaf [1] [%]	Growth controlling degree (%) Rice [2] [%]	Growth controlling degree (%) Barnyardgrass [3] [%]	Growth controlling degree (%) Barnyardgrass [4] [%]	Growth controlling degree (%) Prickly sida [5] [%]	Growth controlling degree (%) Soybean [6] [%]	Growth controlling degree (%) Velvetleaf [7] [%]	Growth controlling degree (%) Green foxtail [8] [%]	Growth controlling degree (%) Corn [9] [%]	Growth controlling degree (%) Japanese ribbon wapato [10] [%]	Growth controlling degree (%) Green foxtail [11] [%]	Growth controlling degree (%) Soyabean [12] [%]	Growth controlling degree (%) Redroot pigweed [13] [%]	Growth controlling degree (%) Japanese bulrush [14] [%]	Growth controlling degree (%) Crabgrass [15] [%]	Growth controlling degree (%) Prickly sida [16] [%]	Growth controlling degree (%) Corn [17] [%]	Growth controlling degree (%) Rice [18] [%]	Growth controlling degree (%) Redroot pigweed [19] [%]	Growth controlling degree (%) Crabgrass [20] [%]	other results
CC(C)C(c1cnccc1C(F)(F)F)N(C)S(=O)(=O)c1ccccc1 (stereo not drawn) [I-117, N-methyl-N-[2-methyl-1-(4-trifluoromethylpyridin-3-yl)propyl]phenylsulfonamide]	80	20	100	95	70	60	50	100	20	0	40	10	60	98	95	70	30	40	50	80	Growth controlling degree (%) Rice [21]: 0%; Growth controlling degree (%) Barnyardgrass [22]: 80%
CCC(=O)N(C)C(c1cnccc1C(F)(F)F)C(C)C (stereo not drawn) [I-163]	70	80	100	100	80	80	90	100	60	90	90	40	70	99	100	95	90	50	80	98	Growth controlling degree (%) Rice [21]: 60%; Growth controlling degree (%) Barnyardgrass [22]: 90%
CC(C)C(c1cnccc1C(F)(F)F)N(C)C(=O)CC1CCCC1 (stereo not drawn) [I-165]	80	10	100	98	80	80	50	100	20	60	70	20	80	98	100	70	40	10	70	95	Growth controlling degree (%) Rice [21]: 10%; Growth controlling degree (%) Barnyardgrass [22]: 80%
